The values below come from publication PMC3075274, “Expression and Activity of a Novel Cathelicidin from Domestic Cats” (PLoS ONE, 2011).

Values after ≈ are worked out from the molar mass of the structure shown. Where two headings read alike, the source gives them in different places. Where no end group is shown, it is not given here.

Assay [1] deals with HaeIII digested Phi-X174 phage DNA. Description: DNA binding assay (gel electrophoresis, retarded migration). The note with it: Phi-X174 HaeIII DNA 20 ng/µl; peptide 10, 30, 100 ng/µl; 5 min room temperature, 0.05% acetic acid; agarose gel, ethidium bromide. The procedure:
Hae-III digested phage DNA Phi-X174 (20 ng/µl) (Roche) was incubated with varying amounts of LL-37, feCath and magainin (10 ng/µl, 30 ng/µl and 100 ng/µl) for 5 min at room temperature. The entire reaction was resolved using agarose gel electrophoresis (1% w/v) and stained with ethidium bromide.
Figure 6 Gel electrophoresis of DNA binding assay. A DNA ladder (HaeIII digested Phi-X174, 200 ng) was incubated with increasing concentrations of peptide (100 ng, 300 ng, 1000 ng) for 5 minutes in 0.05% acetic acid at room temperature. The reaction mixture was resolved using agarose gel electrophoresis ([…]). Arrow indicates retarded migration of Phi-X174 DNA into the gel.

For the next assay, the system named is E. coli D31. Particulars: radial diffusion assay, 10 mM sodium phosphate pH 7.4, peptide 4-1000 ng/µl in 0.05% acetic acid, 3 h 37°C then overlay overnight. The procedure: (§1) A radial diffusion antimicrobial assay was used to assess the antimicrobial activity of feCath and LL-37 [24]. Briefly, overnight bacterial cultures were seeded into fresh tryptic soy broth (TSB). Bacteria was grown to an optical density of 0.2 at A600, pelleted and resuspended in an equal volume of 10 mM sodium phosphate buffer, pH 7.4. Resuspended bacteria were added to underlay minimal-media agarose, and peptide, at various concentrations (1000 ng/µl, 333 ng/µl, 111 ng/µl, 37 ng/µl, 12 ng/µl and 4 ng/µl, dissolved in 0.05% acetic acid), was instilled into adjacent punch-wells. Buffer alone (0.05% acetic acid) was used as the negative control. After 3 hours of incubation at 37°C, overlay nutrient rich agarose was added and allowed to incubate overnight. The following day, zones of clearance were measured. To quantitate zones of clearance, the diameter of the agarose punch (3 mm) was subtracted from the diameter of antimicrobial clearance (in mm), and the resulting number was multiplied by 10.

Assay [2] deals with Salmonella enterica serovar Typhimurium (IR715). The protocol:
as §1

Another assay concerns Listeria monocytogenes. Particulars: radial diffusion assay, 10 mM sodium phosphate pH 7.4, peptide 4-1000 ng/µl in 0.05% acetic acid, 3 h 37°C then overlay overnight. The protocol: as §1
Assay [3] relates to Staphylococcus pseudintermedius (clinical isolate). The note with it: radial diffusion assay, 10 mM sodium phosphate pH 7.4, peptide 4-1000 ng/µl in 0.05% acetic acid, 3 h 37°C then overlay overnight. The procedure:
as §1

With Magainin, the “DNA binding (retardation of DNA migration into the gel)” value in assay [1] is “lacks this ability to bind DNA”.

Turning to “QLGELIQQGGQKIVEKIQKIGQRIRDFFSNLRPRQEA [feCath]”, the MIC (usually the smallest concentration in the dilution series that meets the test's criterion for growth inhibition) with E. coli D31 came to 21 µg/mL; in assay [2] (serovar Typhimurium (IR715, 3 h, pH 7.4)) it was 29 µg/mL.

As for `CC[C@H](C)[C@H](NC(=O)[C@H](CCCCN)NC(=O)[C@H](CCC(=O)O)NC(=O)[C@H](CCCCN)NC(=O)[C@H](CO)NC(=O)[C@H](CCCCN)NC(=O)[C@H](CCCNC(=N)N)NC(=O)[C@H](Cc1ccccc1)NC(=O)[C@H](Cc1ccccc1)NC(=O)[C@H](CC(=O)O)NC(=O)CNC(=O)[C@H](CC(C)C)NC(=O)[C@@H](N)CC(C)C)C(=O)NCC(=O)N[C@@H](CCCCN)C(=O)N[C@@H](CCC(=O)O)C(=O)N[C@@H](Cc1ccccc1)C(=O)N[C@@H](CCCCN)C(=O)N[C@@H](CCCNC(=N)N)C(=O)N[C@H](C(=O)N[C@H](C(=O)N[C@@H](CCC(N)=O)C(=O)N[C@@H](CCCNC(=N)N)C(=O)N[C@H](C(=O)N[C@@H](CCCCN)C(=O)N[C@@H](CC(=O)O)C(=O)N[C@@H](Cc1ccccc1)C(=O)N[C@@H](CC(C)C)C(=O)N[C@@H](CCCNC(=N)N)C(=O)N[C@@H](CC(N)=O)C(=O)N[C@@H](CC(C)C)C(=O)N[C@H](C(=O)N1CCC[C@H]1C(=O)N[C@@H](CCCNC(=N)N)C(=O)N[C@H](C(=O)N[C@@H](CCC(=O)O)C(=O)N[C@@H](CO)C(=O)O)[C@@H](C)O)C(C)C)[C@@H](C)CC)C(C)C)[C@@H](C)CC` [LL-37, reference compound], the MIC stood at 5 µg/mL (≈ 1.11 µM) against E. coli D31; 7 µg/mL (≈ 1.56 µM) with Listeria monocytogenes; 12 µg/mL (≈ 2.67 µM) in assay [2] (Salmonella enterica serovar Typhimurium (IR715), radial diffusion assay, 10 mM sodium phosphate pH 7.4, peptide 4-1000 ng/µl in 0.05% acetic acid, 3 h 37°C then overlay overnight); 15 µg/mL (≈ 3.34 µM) in assay [3].
